In patent US20230096766A1, “AMINO ACID HAVING FUNCTIONAL GROUP CAPABLE OF INTERMOLECULAR HYDROGEN BONDING, PEPTIDE COMPOUND CONTAINING SAME AND METHOD FOR PRODUCTION THEREOF” (Chugai Seiyaku Kabushiki Kaisha, priority 2018, published 2023):
*1 amine or outer side, *2 acyl side, *3 side chain or, on linkers, in order; H or OH if unused. Where a SMILES comes first, the peptide text is derived from it. Bridges are numbered along the chain shown (N, C = ends). [ ]: non-standard residue; d: D form. The star is where a group is joined. ξ: configuration not given here. dhPhe(4-CONHMe,3-OMe) = CNC(=O)c1ccc(CC[C@@H](N)C(=O)O)cc1OC; hPhe(3-OMe,4-CONHMe) = CNC(=O)c1ccc(CC[C@H](N)C(=O)O)cc1OC; NMeAbu(4-morpholino) = CN[C@@H](CCN1CCOCC1)C(=O)O; X1 = COc1cc(C[C@H](N[*:1])C(=O)[*:2])ccc1C(=O)NO; Phe(4-COOH) = N[C@@H](Cc1ccc(C(=O)O)cc1)C(=O)O; NMePhe(3-Cl) = CN[C@@H](Cc1cccc(Cl)c1)C(=O)O; NMehPhe = CN[C@@H](CCc1ccccc1)C(=O)O; NMeF = CN[C@@H](Cc1ccccc1)C(=O)O; NMeGABA = CN(CCCC(=O)[*:2])[*:1]; CH2CONHtBu = CC(C)(C)NC(=O)C*; NMeL = CN[C@@H](CC(C)C)C(=O)O; NMeV = CN[C@H](C(=O)O)C(C)C; NMeAbu = CC[C@H](NC)C(=O)O; ξNMeL = CNC(CC(C)C)C(=O)O; NMeA = CN[C@@H](C)C(=O)O; Piperidide = C1CCN(*)CC1; dNMeA = CN[C@H](C)C(=O)O; X8 = C1COC[C@@H](C*)N1; NBuGly = CCCCNCC(=O)O; NPrGly = CCCNCC(=O)O; Ethyl(2-OH) = OCC*; N(OH)Me = CN(O)*; Sar = CNCC(=O)O; tBu = CC(C)(C)*

assay: in vitro; conditions: human, Caco-2, Caco-2

Question: Which Papp does the source give for `CCCCN1CC(=O)N(C)[C@@H](C(C)C)C(=O)N[C@H](C(=O)N2CCCCC2)CC(=O)N(C)[C@@H](C)C(=O)N[C@@H](CC(C)C)C(=O)N(C)[C@@H](CC(C)C)C(=O)N(C)[C@@H](Cc2ccccc2)C(=O)N[C@@H](CC(C)C)C(=O)N(C)[C@@H](Cc2ccccc2)C(=O)N(C)[C@@H](CCN2CCOCC2)C(=O)N[C@@H]([C@@H](C)O)C1=O` [pd453] ([NMeA]L[NMeL][NMeF]L[NMeF][NMeAbu(4-morpholino)]T[NBuGly][NMeV]D-Piperidide; lactam N-11) here?
Answer: 2.3 ×10⁻⁶ cm/s

same assay, conditions: human, Caco-2, Caco-2 (cm/sec)

Question: With `CCCN1CC(=O)N(C)[C@@H](CC(C)C)C(=O)N[C@@H](COCC(=O)NC(C)(C)C)C(=O)N(C)[C@@H](CC(C)C)C(=O)N(C)[C@@H](C)C(=O)N[C@H](C(=O)N2CCCCC2)CC(=O)N[C@H](CC(C)C)C(=O)N(C)[C@@H](CC(C)C)C(=O)N[C@@H](Cc2ccccc2)C(=O)N(C)[C@@H](CCc2ccccc2)C(=O)N[C@@H]([C@@H](C)O)C1=O` [AP13] ([dL][NMeL]F[NMehPhe]T[NPrGly][NMeL]S(CH2CONHtBu)[NMeL][NMeA]D-Piperidide; lactam N-11) as the molecule, how does the Papp read?
Answer: 0.32 ×10⁻⁶ cm/s

Question: With `CCCCN1CC(=O)N(C)[C@@H](CC(C)C)C(=O)N(C)[C@@H](CC(C)C)C(=O)N[C@@H](COC(C)(C)C)C(=O)N(C)[C@@H](CC(C)C)C(=O)N[C@H](C(=O)N2CCCCC2)CC(=O)N(C)CC(=O)N(C)[C@@H](Cc2cccc(Cl)c2)C(=O)N[C@@H](Cc2ccc(C(=O)NO)c(OC)c2)C(=O)N(C)[C@@H](CC(C)C)C(=O)N[C@@H]([C@@H](C)O)C1=O` [AP260] ([Sar][NMePhe(3-Cl)][X1][NMeL]T[NBuGly][NMeL][NMeL]S(tBu)[NMeL]D-Piperidide; lactam N-11) as the molecule, how does the Papp read?
Answer: 0.04 ×10⁻⁶ cm/s

Question: Which Papp does the source give for `CNC(=O)c1ccc(CC[C@@H]2NC(=O)[C@H](CC(C)C)N(C)C(=O)[C@H]([C@@H](C)O)NC(=O)[C@H](CC(C)C)N(C)C(=O)[C@H](CC(C)C)N(C)C(=O)[C@@H](C)N(C)C(=O)C[C@@H](C(=O)N3CCCCC3)NC(=O)[C@H](CC(C)C)N(C)C2=O)cc1OC` [AP262] ([dNMeA][NMeL][NMeL]T[NMeL][hPhe(3-OMe,4-CONHMe)][NMeL]D-Piperidide; lactam N-8) here?
Answer: 0.17 ×10⁻⁶ cm/s

Question: For `CC[C@H](C)[C@@H]1NC(=O)[C@H](CC(C)C)N(C)C(=O)CCCN(C)C(=O)C[C@@H](C(=O)N2CCCCC2)NC(=O)[C@H](CC(C)C)N(C)C(=O)[C@H](CC(C)C)N(C)C(=O)[C@H]([C@@H](C)O)NC(=O)[C@H](CC(C)C)N(C)C(=O)[C@H](COC[C@@H]2COCCN2)NC(=O)[C@H](CC(C)C)N(C)C(=O)[C@H](Cc2ccccc2)N(C)C1=O` [AP241] ([NMeGABA][NMeL]I[NMeF][NMeL]S(X8)[NMeL]T[NMeL][NMeL]D-Piperidide; lactam N-11), which Papp is on record?
Answer: 0.05 ×10⁻⁶ cm/s

Question: With `CC(C)C[C@@H]1NC(=O)[C@H](Cc2ccccc2)N(C)C(=O)[C@@H](C(C)C)NC(=O)C[C@@H](C(=O)N2CCCCC2)NC(=O)[C@H](Cc2ccccc2)N(C)C(=O)[C@H](Cc2ccccc2)N(C)C(=O)[C@H](C(C)C)NC(=O)[C@H](CC(C)C)N(C)C(=O)CN(C)C(=O)[C@H]([C@@H](C)O)NC(=O)[C@H](CC(C)C)N(C)C1=O` [pd221] ([dV][NMeF]L[NMeL]T[Sar][NMeL]V[NMeF][NMeF]D-Piperidide; lactam N-11) as the molecule, how does the Papp read?
Answer: 1.1 ×10⁻⁶ cm/s

Question: Which Papp does the source give for `CC[C@H]1C(=O)N[C@@H](CC(C)C)C(=O)N(C)[C@@H](CC(C)C)C(=O)N(C)[C@@H](Cc2ccccc2)C(=O)N[C@H](CCc2ccc(C(=O)NC)c(OC)c2)C(=O)N(C)[C@@H](CC(C)C)C(=O)N(C)[C@@H](CC(C)C)C(=O)N[C@@H]([C@@H](C)O)C(=O)N(C)CC(=O)N(C)[C@@H](CC(C)C)C(=O)N[C@H](C(=O)N2CCCCC2)CC(=O)N1C` [AP212] ([NMeAbu]L[NMeL][NMeF][dhPhe(4-CONHMe,3-OMe)][NMeL][NMeL]T[Sar][NMeL]D-Piperidide; lactam N-11) here?
Answer: 0.64 ×10⁻⁶ cm/s

Question: With `CC[C@H](C)[C@@H]1NC(=O)[C@H](CC(C)C)N(C)C(=O)CCCN(C)C(=O)C[C@@H](C(=O)N2CCCCC2)NC(=O)[C@H](CC(C)C)N(C)C(=O)[C@H](CC(C)C)N(C)C(=O)[C@H]([C@@H](C)O)NC(=O)[C@H](CC(C)C)N(C)C(=O)[C@H](COCCO)NC(=O)[C@H](CCc2ccccc2)N(C)C(=O)[C@H](CCc2ccccc2)N(C)C1=O` [Compound A04] ([NMeGABA][NMeL]I[NMehPhe][NMehPhe]S(Ethyl(2-OH))[NMeL]T[NMeL][NMeL]D-Piperidide; lactam N-11) as the molecule, how does the Papp read?
Answer: 0.41 ×10⁻⁶ cm/s

Question: With `CCCCN1CC(=O)N(C)[C@@H](CC(C)C)C(=O)N[C@@H](Cc2ccc(C(=O)N(C)O)cc2)C(=O)N(C)[C@@H](CC(C)C)C(=O)N(C)[C@@H](CC(C)C)C(=O)N[C@H](C(=O)N2CCCCC2)CC(=O)N[C@H](CC(C)C)C(=O)N(C)[C@@H](Cc2ccccc2)C(=O)N[C@@H](C(C)C)C(=O)N(C)C(CC(C)C)C(=O)N[C@@H]([C@@H](C)O)C1=O` (stereo partly drawn) [AP249] ([dL][NMeF]V[ξNMeL]T[NBuGly][NMeL][Phe(4-COOH)](N(OH)Me)[NMeL][NMeL]D-Piperidide; lactam N-11) as the molecule, how does the Papp read?
Answer: 0.04 ×10⁻⁶ cm/s
